Data set [1] has as its system RK3E-ras-Luc cells. The data set can be described thus: TUNEL assay on tumor sections. The data set is classed as in vivo, SD rats. To be noted: 5 mg/kg i.v. The method, then: (§1) The excised solid tumors were fixed in 10% buffered formalin and embeddedin paraffin. For optical microscopic examinations, 4-μm sectioned tissues were stained with H&E. Immunohistochemical staining was performed with the avidin-biotin complex method using anti-PCNA antibodies. The immune reactions were visualized with 3,3′-diaminobenzidine and counterstained with Mayer's hematoxylin. A TUNEL assay was performed using an ApopTag PlusPeroxidase In Situ Apoptosis Detection kit (Intergen, Purchase, N.Y.) according to the manufacturer's instructions. Briefly, the slides were deparaffinized and treated with 20 μg/mL proteinase K at 37° C. for 15 min to enhance staining. After immersion 3% hydrogen peroxide to block the endogenous peroxidase, the slides were incubated with a reaction buffer containing terminal de-oxynucleotidyl transferase at 37° C. for 1 h. The slides were then incubated with a peroxidase-conjugated anti-digoxigenin antibody for 30 min, and the reaction products were visualized with a 0.03% 3,3′-diaminobenzidine solution containing 2 mM hydrogen peroxide. The slides were counterstained with 0.5% methyl green.

In data set [2] the test system is RK3E-ras-Luc cells. The data set can be described thus: In vivo bioluminescence imaging assay. Set-up: species or system SD rats. To be noted: day 10 after treatment, 5 mg/kg i.v. The source says: For bioluminescence imaging, the rats received an i.p. injection of luciferin (Molecular Probes, Palo Alto, Calif.) with Rumpun/ketamine (1:1) anesthesia. The rats were imaged using a LAS-1000 plus imaging System (Fuji film. Tokyo. Japan) to record the bioluminescent signal emitted from the tumor. The LAS-1000 system equipped with a CCD camera was used for acquisition of the emitted light, and Living Image software (Multi Gauge v3.0) was used for data analysis.

Data set [3] relates to several human cancer cell lines. The data set can be described thus: SRB cell proliferation assay, summary over cell lines. The data set is classed as cell-based. To be noted: Homo sapiens, range over cell lines; read-out: anti-proliferative IC50, range over cancer cell lines. The method, then: (§2) ^a A series of indirubin derivatives were tested at five concentrations for their effects on various human cancer cell lines using SRB assay, as described in the Experimental Section.
(§3) Cells (A549, HT1080, HCT116, K562, SNU638, KB, MCF-7) were counted, diluted to 5×10^4 cells/mL with fresh medium (MEME, DMEM or RPMI containing 10% FBS), and added 190 μL of cell suspension to 96-well plates containing various concentrations of test compounds (10 μL in 10% aqueous DMSO). Test plates were incubated for 3 days at 37° C. in CO2 incubator. For zero day controls, cells were incubated for 30 min at 37° C. in CO2 incubator. All treatments were performed in triplicate. After the incubation periods, cells were fixed with 50 μL of cold 50% TCA at 4° C. for 30 min, washed 5 times with tap water, and air-dried. The fixed cells were stained with 0.4% SRB solution in 1% aqueous acetic acid at room temperature for 1 h. Free SRB solution was then removed by rinsing 5 times with 1% acetic acid, and air-dried. The bound dye was dissolved with 200 µL of 10 mM Tris-base (pH 10.0), and absorbance was determined at 515 nm using an ELISA microplate reader. Finally, the absorbance values obtained with each of the treatment procedures were averaged, and the average values obtained with the zero day control were subtracted.

The subject of data set [4] is T1, c-Met, Met M1250T, Ron, VEGF2, EGFR, TrkA, PI3Kγ, IKKβ Insulin receptor, Aurora A.
T1 construct: other: 10 μM
The data set is described as follows: Kinase panel screening (HTRF). The data set is classed as biochemical. To be noted: 10 μM. The method, then: (§4) Inhibition of kinase activity against a variety of recombinant kinases (c-Met, Met M1250T, Ron, VEGF2, EGFR, TrkA, PI3Kγ, IKKβ Insulin receptor, Aurora A) was measured using homogeneous time-resolved fluorescence (HTRF) assays. Briefly, assays are based on the phosphorylation of peptide substrates in the presence of ATP. Resulting phosphorylated substrates are detected by TR-FRET (Time Resolved-Fluorescence Resonance Energy Transfer) signal. Recombinant proteins containing kinase domain were purchased from Millipore (Billerica, Mass.). Optimal enzyme, ATP, and substrate concentrations were established for each enzyme using HTRF KinEASE kit (Cisbio) according to the manufacturer's instruction. Assays are consisted of enzymes mixed with serially diluted compounds and peptide substrates in kinase reaction buffer (250 mM HEPES (pH 7.0), 0.5 mM orthovanadate, 0.05% BSA, 0.1% NaN3). Following the addition of reagents for detection, TR-FRET signal was measured using EnVision multi-label reader (Perkin Elmer, Waltham, Mass.).

For data set [5], the system named is PCNA. The data set is described as follows: Immunohistochemical staining for PCNA in tumor. Type of data set: in vivo, SD rats. As to conditions: 5 mg/kg i.v. The method, then: as §1
For data set [6], the system named is KB human nasopharyngeal cancer cell. The data set can be described thus: SRB cell proliferation assay, KB. As to conditions: 72 h, 3 days. Type of data set: cell-based. On the procedure: as §2, §3
Data set [7] deals with T2, CDK2/cyclin E (Homo sapiens, UniProt P24941).
T2 construct: purchased Milipore (Billerica, Mass.)
The data set is described as follows: CDK2/cyclin E kinase assay. As to conditions: ten concentrations, dose response curves; read-out: CDK2/cyclin E inhibitory activity IC50. Type of data set: biochemical. On the procedure: CDK1/cyclin B, CDK2/cyclin E were purchased from Milipore (Billerica, Mass.). The kinase activity was tested in buffer (8 mM MOPS pH 7.0, 0.2 mM EDTA, 10 mM MgAcetate), with 0.1 mg/mL histone H1, in the presence of 45 µM [—^33P] ATP (500 cpm/pmol) for CDK1 or 120 μM [γ—^33P] ATP (500 cpm/pmol) for CDK2 in a final reaction volume of […]. The reaction was initiated by the addition of the MgATP mix. After incubation for 40 min at 30° C., the reaction was stopped by the addition of 5 μL of 3% phosphoric acid solution. 10 μL aliquots of supernatant were spotted onto 2.5 cm×3 cm pieces of Whatman […] phosphocellulose paper, and 20 s later, the filters were washed three times for 5 min in 75 mM phosphoric acid and once in methanol prior to drying. The […] filters were counted in the presence of 1 mL of ACS (Amersham) scintillation fluid. The activities are usually expressed as a percentage of the maximal activity, i.e., in the absence of inhibitors. Controls were applied with appropriate dilutions of DMSO.

Data set [8] deals with T3, IKKβ (Homo sapiens, UniProt O14920).
T3 construct: Recombinant proteins containing kinase domain were purchased from Millipore (Billerica, Mass.); purchased Millipore (Billerica, Mass.)
T3 sequence (O14920 15-300 limits assumed): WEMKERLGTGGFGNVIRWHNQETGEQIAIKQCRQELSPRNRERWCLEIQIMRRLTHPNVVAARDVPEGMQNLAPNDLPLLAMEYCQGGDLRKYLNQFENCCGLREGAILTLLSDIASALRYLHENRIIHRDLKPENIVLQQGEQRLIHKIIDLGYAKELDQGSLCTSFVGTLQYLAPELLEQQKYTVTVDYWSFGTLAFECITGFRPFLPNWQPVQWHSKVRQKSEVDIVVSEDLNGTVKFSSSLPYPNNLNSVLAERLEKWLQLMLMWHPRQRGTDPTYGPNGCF
The data set is described as follows: HTRF kinase assay, IKKβ. To be noted: dose response curves; read-out: IC50 against IKKβ. Type of data set: biochemical. On the procedure: as §4

Data set [9] in a line: Tumor xenograft animal model, body weight. The data set is classed as in vivo, SD rats. To be noted: 5 mg/kg i.v. every other day, five times. The source says: The k-ras-transformed rat kidney epithelial cell line (RK3E-ras) were maintained in DMEM supplemented with 10% FCS, 100 units/mL penicillin, and 100 Ag/mL streptomycin. RK3E-ras cells were kindly provided by Dr. Eric Fearon (University of Michigan Medical School, Ann Arbor, Mich.) and have been described in the previous report. Male SD rats (6 weeks of age) were used to examine the inhibition of tumor growth in vivo. RK3E-ras-Luc cells (5×10^6) were implanted subcutaneously into the flank of the rats on Day 0, and rats were grouped randomly (5 […]/group) on Day 5 as previously described. […] The animals were sacrificed 48 hr after the final administration, and rat weights and tumor volumes were measured. The tumor growth volumes were calculated as follows: V=(ab^2)/2, where, a is the longest diameter and b is the shortest diameter of the tumor. All experiments were conducted under protocols approved by the Animal Care and Use Committee at Chosun University School of Dentistry (Gwangju, South Korea).

Data set [10] has as its target CDK1/cyclin B (Homo sapiens, UniProt P06493). The data set can be described thus: CDK1/cyclin B kinase assay. The data set is classed as biochemical. As to conditions: read-out: IC50 in CDK1/cycline B kinase assay. The source says: The reaction was initiated by the addition of the MgATP mix.
The test system of data set [11] is RK3E-ras-Luc cells. The data set is described as follows: Histology (H&E) of tumor tissue. To be noted: 5 mg/kg i.v. The data set is classed as in vivo, SD rats. The method, then:
as §1

The target of data set [12] is T4, TrkA (Homo sapiens, UniProt P04629).
T4 construct: Recombinant proteins containing kinase domain were purchased from Millipore (Billerica, Mass.); purchased Millipore (Billerica, Mass.)
The data set is described as follows: HTRF kinase assay, TrkA. The data set is classed as biochemical. The method, then: as §4

Data set [13] concerns MCF-7 human breast cancer cell. The data set is described as follows: SRB cell proliferation assay, MCF-7. As to conditions: MCF7, 72 h, 3 days. Type of data set: cell-based. The method, then:
as §2, §3

pIC50: −log10 of the molar value. Entries after “also recorded” stand apart in the source; their conditions may differ.

T4 sequence (P04629 510-781 limits assumed): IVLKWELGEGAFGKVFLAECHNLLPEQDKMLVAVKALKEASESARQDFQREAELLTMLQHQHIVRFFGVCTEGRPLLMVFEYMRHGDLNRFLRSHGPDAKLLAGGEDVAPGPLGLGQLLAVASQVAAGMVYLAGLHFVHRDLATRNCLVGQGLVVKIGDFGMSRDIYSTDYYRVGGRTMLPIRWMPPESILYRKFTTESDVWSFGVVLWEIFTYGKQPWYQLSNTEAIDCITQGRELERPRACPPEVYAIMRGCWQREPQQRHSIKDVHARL
Chain of CDK1/cyclin B (P06493 whole entry): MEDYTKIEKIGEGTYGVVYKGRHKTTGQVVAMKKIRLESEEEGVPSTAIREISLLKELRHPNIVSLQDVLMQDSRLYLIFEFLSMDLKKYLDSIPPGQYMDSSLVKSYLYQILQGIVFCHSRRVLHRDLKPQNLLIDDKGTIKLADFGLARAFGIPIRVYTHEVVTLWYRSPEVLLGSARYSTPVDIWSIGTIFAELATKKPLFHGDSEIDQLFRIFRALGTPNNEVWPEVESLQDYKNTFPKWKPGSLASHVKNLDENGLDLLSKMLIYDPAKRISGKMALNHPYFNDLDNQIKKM
Chain of CDK1/cyclin B (P14635 whole entry partner): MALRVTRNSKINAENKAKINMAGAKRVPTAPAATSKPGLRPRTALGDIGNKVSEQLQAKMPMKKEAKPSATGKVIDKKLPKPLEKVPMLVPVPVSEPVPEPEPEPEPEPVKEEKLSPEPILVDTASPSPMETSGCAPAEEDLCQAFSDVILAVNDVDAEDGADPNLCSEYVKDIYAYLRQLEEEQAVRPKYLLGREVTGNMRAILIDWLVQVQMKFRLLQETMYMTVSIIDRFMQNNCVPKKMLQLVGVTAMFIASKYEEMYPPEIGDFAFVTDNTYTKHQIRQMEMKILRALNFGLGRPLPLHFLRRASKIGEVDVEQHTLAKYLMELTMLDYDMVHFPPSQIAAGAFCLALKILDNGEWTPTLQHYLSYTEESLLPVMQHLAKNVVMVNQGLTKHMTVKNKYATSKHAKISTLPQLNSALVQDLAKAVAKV

Consider `O=C1Nc2ccc([N+](=O)[O-])cc2/C1=C1/Nc2ccc(O)cc2C1=NO` [Compound 11b, (2′Z, 3′E)-5′-Hydroxy-5-nitro-indirubin-3′-oxime], for which, in data set [1], the “TUNEL-positive apoptotic cells compared with control tissue” value is reported as “about 6.0 fold”. Further, the “luminescence intensity (indicator of tumor growth)” value in [2] is “significantly decreased”. In addition, the pIC50 in data set [3] was 5.48 to 6.70; in [6], 5.89; in [7] it was 8.72; in data set [8], 5.00; in [10] it was 7.89; in data set [12] (dose response curves, read-out: IC50 against TrkA), 5.40. In data set [13], this compound had a pIC50 of 5.92. In addition, the “inhibitory activity against kinase panel” value in [4] is “weak inhibitory activity only against Aurora A, IKKβ and TrkA”. Further, the “expression level of PCNA compared with control” value in data set [5] is on record as “decreased”. The “body weight compared with control” value in [9] was “without loss of body weight; also recorded: no significant difference in body weight”. For the same compound, the “histological analysis of treated tumor” value in data set [11] is “extensive cell death”. Also, the inhibition at 1 µM in data set [12] (1 μM, read-out: inhibitory activity against TrkA) was determined as 9%.
